Marks after values point to notes of the source that are not given here.
Legend:
[1] = tested on: Sodium Monoiodoacetate Induced Osteoarthritis(OA) in Rats; experiment: Effect of UC-II undenatured Type II collagen and cannabidiol on sodium monoiodoacetate (MIA) induced osteoarthritis in rats: metabolic, inflammatory and oxidative stress markers; type: in vivo; settings: MIA-induced OA male Wistar rats, 30 days; for COMP (cartilage oligomeric matrix protein) / CRP (c-reactive protein) / IL-1β (interleukin-1β) / IL-6 (interleukin-6) / PGE2 (prostaglandin E2) / TNF-α (tumor necrosis factor α): serum
Experimental: OA was induced in male Wistar rats by intra-articular injection of sodium monoiodoacetate (MIA: 1 mg/kg). Treatment was started a week before injection with MIA and lasted 30 days. Biomarker testing was conducted prior to 24 days post MIA.

[2] = tested on: Sodium Monoiodoacetate Induced Osteoarthritis(OA) in Rats; experiment: Effect of UC-II undenatured Type II collagen and cannabigerol on sodium monoiodoacetate (MIA) induced osteoarthritis in rats: metabolic, inflammatory and oxidative stress markers; type: in vivo; settings: MIA-induced OA female rats, 30 days
Experimental: […] Treatment was started a week before injection with MIA and lasted 30 days. Biomarker testing was conducted prior to 24 days post MIA.
The dosage levels were the same.

[3] = CBD1 = CBD 1.62 mg/kg (combination: + UC-II 4 mg/kg)
[4] = CBD2 = CBD 3.24 mg/kg (combination: + UC-II 4 mg/kg)
[5] = CBGI = CBG 1.62 mg/kg (combination: + UC-II 4 mg/kg)
[6] = CBGII = CBG 3.24 mg/kg (combination: + UC-II 4 mg/kg)

Compound: C=C(C)[C@@H]1CCC(C)=C[C@H]1c1c(O)cc(CCCCC)cc1O [CBD, cannabidiol]
- ALB (Albumin) [1, 3]: 3.59 ± 0.13^ab g/dL
- ALP (Alkaline phosphatase) [1, 3]: 137.14 ± 8.95^a U/L
- ALT (Alanine aminotransferase) [1, 3]: 69.14 ± 7.63 U/L
- AST (Aspartate aminotransferase) [1, 3]: 108.43 ± 13.4 U/L
- BUN (Blood Urine Nitrogen) [1, 3]: 23.57 ± 2.27 mg/dL
- CAT (catalase) [1, 3]: 125.79 ± 7.41^d U/mL
- CR (Creatine) [1, 3]: 0.45 ± 0.11 mg/dL
- GLOB (Globulin) [1, 3]: 3.16 ± 0.05^b g/dL
- GLU (Glucose) [1, 3]: 112.43 ± 11.52 mg/dL
- MDA (malondialdehyde) [1, 3]: 1.28 ± 0.08^b nmol/mL
- OCN (osteocalcin) [1, 3]: 28.20 ± 1.74^e μg/mL
- SOD (superoxide dismutase) [1, 3]: 50.00 ± 1.82^de U/mL
- TBIL (Total Bilirubin) [1, 3]: 0.20 ± 0.01 mg/dL
- TP (Total Protein) [1, 3]: 6.71 ± 0.17 g/dL
- ALB (Albumin) [1, 4]: 3.57 ± 0.14^ab g/dL
- ALP (Alkaline phosphatase) [1, 4]: 140.43 ± 8.40^a U/L
- ALT (Alanine aminotransferase) [1, 4]: 70.29 ± 5.56 U/L
- AST (Aspartate aminotransferase) [1, 4]: 110.29 ± 12.58 U/L
- BUN (Blood Urine Nitrogen) [1, 4]: 24.23 ± 1.27 mg/dL
- CAT (catalase) [1, 4]: 139.36 ± 3.44b^c U/mL
- CR (Creatine) [1, 4]: 0.45 ± 0.08 mg/dL
- GLOB (Globulin) [1, 4]: 3.27 ± 0.23^ab g/dL
- GLU (Glucose) [1, 4]: 109.86 ± 5.81 mg/dL
- GSH-Px (glutathione peroxidase) [1, 4]: 85.31 ± 3.85^bc U/mL
- MDA (malondialdehyde) [1, 4]: 1.24 ± 0.16^b nmol/mL
- OCN (osteocalcin) [1, 4]: 33.35 ± 3.18^d μg/mL
- SOD (superoxide dismutase) [1, 4]: 58.04 ± 2.76^c U/mL
- TBIL (Total Bilirubin) [1, 4]: 0.20 ± 0.01 mg/dL
- TP (Total Protein) [1, 4]: 6.87 ± 0.37 g/dL
- COMP (cartilage oligomeric matrix protein) [1, 3]: 21.22 ± 1.77^c ng/mL
- CRP (c-reactive protein) [1, 3]: 6.39 ± 1.06^c mg/L
- IL-1β (interleukin-1β) [1, 3]: 34.92 ± 2.23^bc pg/mL
- IL-6 (interleukin-6) [1, 3]: 30.83 ± 2.17^c pg/mL
- PGE2 (prostaglandin E2) [1, 3]: 504.41 ± 37.35^bc pg/mL
- TNF-α (tumor necrosis factor α) [1, 3]: 46.58 ± 0.87^c pg/mL
- COMP (cartilage oligomeric matrix protein) [1, 4]: 16.32 ± 1.91^d ng/mL
- CRP (c-reactive protein) [1, 4]: 3.95 ± 0.20^d mg/L
- IL-1β (interleukin-1β) [1, 4]: 31.94 ± 1.91^cd pg/mL
- IL-6 (interleukin-6) [1, 4]: 28.65 ± 2.17^c pg/mL
- PGE2 (prostaglandin E2) [1, 4]: 469.24 ± 11.42^cd pg/mL
- TNF-α (tumor necrosis factor α) [1, 4]: 41.97 ± 1.31^c pg/mL

Compound: CCCCCc1cc(O)c(C/C=C(\C)CCC=C(C)C)c(O)c1 [CBG, cannabigerol]
- CAT (catalase) [2, 5]: 136.44 ± 4.10^bc U/mL
- COMP (cartilage oligometrix matrix protein) [2, 5]: 21.68 ± 2.13^b ng/mL
- CRP (c-reactive protein) [2, 5]: 7.04 ± 0.85^b mg/L
- GSH-Px (glutathione peroxidase) [2, 5]: 75.87 ± 4.87^bc U/mL
- IL-1β (interleukin-1β) [2, 5]: 35.08 ± 3.41^b pg/mL
- IL-6 (interleukin-6) [2, 5]: 33.14 ± 4.07^b pg/mL
- IL-10 (interleukin-10) [2, 5]: 47.42 ± 5.77^d pg/mL
- MDA (malondialdehyde) [2, 5]: 1.57 ± 0.07^b nmol/mL
- Osteocalcin [2, 5]: 28.15 ± 1.34^ef μg/mL
- PGE2 (prostaglandin E2) [2, 5]: 483 ± 36.86^b pg/mL
- SOD (superoxide dismutase) [2, 5]: 49.13 ± 5.76^bc U/mL
- TNF-α (tumor necrosis factor α) [2, 5]: 56.95 ± 5.61^b pg/mL
- CAT (catalase) [2, 6]: 138.82 ± 2.71^b U/mL
- COMP (cartilage oligometrix matrix protein) [2, 6]: 20.42 ± 2.16^b ng/mL
- CRP (c-reactive protein) [2, 6]: 6.45 ± 0.82^bc mg/L
- GSH-Px (glutathione peroxidase) [2, 6]: 77.29 ± 5.83^b U/mL
- IL-1β (interleukin-1β) [2, 6]: 34.05 ± 2.80^b pg/mL
- IL-6 (interleukin-6) [2, 6]: 32.41 ± 3.81^b pg/mL
- IL-10 (interleukin-10) [2, 6]: 46.17 ± 4.91^d pg/mL
- MDA (malondialdehyde) [2, 6]: 1.60 ± 0.07^b nmol/mL
- Osteocalcin [2, 6]: 30.82 ± 1.35^de μg/mL
- PGE2 (prostaglandin E2) [2, 6]: 473.71 ± 40.89^b pg/mL
- SOD (superoxide dismutase) [2, 6]: 51.13 ± 3.75^bc U/mL
- TNF-α (tumor necrosis factor α) [2, 6]: 54.32 ± 5.01^b pg/mL

Reference: US12611446B2, “Cannabinoid product for improving musculoskeletal health” (Lonza Greenwood LLC, priority 2019, dated 2026)
